# Paper PMC4331650 (Biochimica et Biophysica Acta, 2014)
# Residue numbers refer to the chain shown, from its start. Where “and” joins values, the source holds several entries; their conditions need not be identical. Equal entries are not always repeated.
# Key:
# [1] = target: T1, N257A CLC-Ka (Homo sapiens, UniProt P51800, N257A); type: cell-based; conditions: 100 μM CPAint; negative voltages
# T1 sequence (P51800 1-687 N257A): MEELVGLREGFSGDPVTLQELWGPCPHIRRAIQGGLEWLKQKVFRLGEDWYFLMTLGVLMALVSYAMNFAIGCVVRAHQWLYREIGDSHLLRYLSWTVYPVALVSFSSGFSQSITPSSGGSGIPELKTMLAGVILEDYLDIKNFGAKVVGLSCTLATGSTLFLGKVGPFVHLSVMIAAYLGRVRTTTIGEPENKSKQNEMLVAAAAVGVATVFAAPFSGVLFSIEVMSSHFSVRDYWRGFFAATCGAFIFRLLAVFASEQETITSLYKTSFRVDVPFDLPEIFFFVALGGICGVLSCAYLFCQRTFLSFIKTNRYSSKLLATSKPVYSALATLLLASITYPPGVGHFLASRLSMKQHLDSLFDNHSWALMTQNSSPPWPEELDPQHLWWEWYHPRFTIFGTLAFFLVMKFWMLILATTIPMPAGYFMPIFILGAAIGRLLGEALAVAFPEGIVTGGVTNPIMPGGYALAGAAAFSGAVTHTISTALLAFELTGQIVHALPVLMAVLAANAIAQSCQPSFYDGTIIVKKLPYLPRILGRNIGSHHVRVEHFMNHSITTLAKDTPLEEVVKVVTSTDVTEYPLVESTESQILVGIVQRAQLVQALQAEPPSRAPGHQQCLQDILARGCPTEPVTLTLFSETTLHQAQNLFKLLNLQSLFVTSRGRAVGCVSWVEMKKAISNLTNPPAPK
# T1 sequence (Q8WZ55 1-320 Y98A partner): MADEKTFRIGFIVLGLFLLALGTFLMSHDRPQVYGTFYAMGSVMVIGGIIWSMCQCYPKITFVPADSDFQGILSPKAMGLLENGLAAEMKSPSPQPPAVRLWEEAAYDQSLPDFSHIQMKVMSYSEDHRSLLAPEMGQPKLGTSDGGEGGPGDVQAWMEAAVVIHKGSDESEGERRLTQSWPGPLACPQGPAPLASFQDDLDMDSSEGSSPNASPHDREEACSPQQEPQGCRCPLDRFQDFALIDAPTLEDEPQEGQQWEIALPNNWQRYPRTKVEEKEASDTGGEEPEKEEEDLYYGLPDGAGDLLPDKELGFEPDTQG
# [2] = target: T1, N257A CLC-Ka; type: cell-based; conditions: 50 μM CPA, intracellular; −100 mV
# [3] = test system: CLC-0; conditions: negative potentials; cited from earlier work
# [4] = test system: CLC-1; conditions: negative potentials; cited from earlier work
# [5] = target: T2, WT CLC-Ka (Homo sapiens, UniProt P51800); conditions: Xenopus oocytes; cited from earlier work
# T2 sequence (P51800 1-687): T1 sequence (P51800 1-687 N257A) with A257N
# T2 sequence (Q8WZ55 1-320 Y98A partner): T1 sequence (Q8WZ55 1-320 Y98A partner)
SMILES,effect of CPA on currents [1],amplitude of predominant conductance level in the presence of CPA [2],effect on CLC-0 currents [3],effect on CLC-1 currents [4],effect on CLC-Ka [5]
"O=C(O)COc1ccc(Cl)cc1 [CPA, p-chlorophenoxy-acetic acid]",inhibits,~ 0.66 pA and 0.66 pA,block,block,–
O=S(=O)(O)c1cc(N=C=S)ccc1C=Cc1ccc(N=C=S)cc1S(=O)(=O)O [DIDS],–,–,–,–,inhibit
O=C(O)c1ccccc1Nc1cccc(C(F)(F)F)c1 [flufenamic acid],–,–,–,–,inhibit
